Experimental data: patent US9302014B2, “Cell-penetrating peptides having a central hydrophobic domain” (Medical Research Council, priority 2011, dated 2016)

Columns and labels:
dystrophin [1] = conditions: single 25 mg/kg administration; cited from earlier work
dystrophin [2] = assay: Immunohistochemical staining and quantification of dystrophin in mdx mice after single IV injection; assay type: in vivo; conditions: heart; mdx mice, single 12.5 mg/kg IV, 2 weeks; relative to laminin, normalised to C57BL10
Description: (§1) Given the potency of Pip5e-PMO in heart tissue, the aim of altering the sequence of the hydrophobic core (whilst maintaining the 5-aa length) was to identify peptides that might be more efficient at lower doses. These modifications included inversion of the hydrophobic region (Pip6a), substitution of tyrosine by isoleucine (Pip6b), substitution of glutamine in the Pip6a sequence by displacement of the arginine immediately flanking the core in the first arginine-rich flanking region (Pip6e), and a scrambled hydrophobic core sequence (Pip6f). All Pip6 peptide-PMO conjugates were administered to mdx mice as single 12.5 mg/kg intravenous injections via the tail vein and tissues were harvested 2 weeks later and assessed for activity at both RNA and protein levels.
Immunohistochemical staining quantification (FIGS. 34a, b) was performed as previously described [Malerba, A., et al., Chronic systemic therapy with low-dose morpholino oligomers ameliorates the pathology and normalizes locomotor behavior in mdx mice. Mol Ther, 2011. 19(2): p. 345-54; Arechavala-Gomeza, V., et al., Immunohistological intensity measurements as a tool to assess sarcolemma-associated protein expression. Neuropathol Appl Neurobiol, 2010. 36(4): p. 265-74.] and was achieved by taking 4 representative frames of the dystrophin staining and correlating this with laminin staining for each section (n=3) of the quadriceps, diaphragm and heart for each peptide-PMO treatment. Untreated mdx and treated mdx mice were normalised to C57BL10 mice. This method allows comparison of the staining intensity of dystrophin at the sarcolemma relative to laminin for each treatment group. Intensity ratios are normalised to C57BL10 samples and each region of interest at the sarcolemma (120 regions for each treatment group) is plotted on a scatter graph. […]
Transverse sections of tissue samples were cut (8 μm thick) for the examination of dystrophin expression. For dystrophin visualisation and quantification, sections were co-stained with rabbit-anti-dystrophin (Abcam) and rat anti-laminin (Sigma), and detected by goat-anti-rabbit IgG Alexa 594 and goat-anti-rat IgG 488 secondary antibodies respectively (Invitrogen). […] Quantitative immunohistochemistry was performed as previously described [Malerba, A., et al., Chronic systemic therapy with low-dose morpholino oligomers ameliorates the pathology and normalizes locomotor behavior in mdx mice. […] For quantification, 4 representative frames of the dystrophin and correlating laminin were taken for each section (n=3) of the quadriceps, diaphragm and heart for each treatment. […] The minimum and maximum fluorescence intensity for 120 regions were recorded for each treatment. […]

dystrophin exon 23 = assay: RT-PCR and quantitative real time PCR of exon skipping in mdx mouse tissues; assay type: in vivo, mdx mice; conditions: diaphragm; single 12.5 mg/kg IV, 2 weeks
Description: as §1
The RTPCR representative images (FIG. 34d) illustrate high exon skipping efficiency in all tissues analysed. This is better shown by Real Time PCR (qRT-PCR) results for the quadriceps, diaphragm and heart (FIG. 34c). The delta 23 transcript is normalised against ‘total dystrophin’ for each muscle group (n=3). […] Western blots (FIG. 34e) were performed on the tissues of each mouse and were quantified against a 50% and 10% C57BL10 control.
Four and a half month old to 5½ month old mdx mice were used in these experiments (n=3). […]

[3] = Serum stability of Pip-PMO conjugates in 100% mouse serum (HPLC, MALDI-TOF); assay type: in vitro ADME; conditions: 37° C.
Method: Serum stability may be measured by adding an aliquot of Pip-PMO (10 nmoles) to 100% mouse serum (100 μL) and incubating at 37° C. for 120 or 240 min. Each reaction is diluted with IM guanidinium-HCl solution (300 μL) and ice-cold acetonitrile (600 μL). Samples are mixed and kept at −20° C., and the precipitated serum proteins separated by centrifugation (13000 rpm, 5 min). After centrifugation, the supernatant is collected, lyophilized and the residue dissolved in water for analysis for peptide degradation by MALDI-TOF mass spectrometry and by reversed phase HPLC. HPLC conditions are: Column, C18 reversed-phase (250×4.6 mm); Solvent A, 0.1% TFA, Solvent B, 90% Acetonitrile, 10% solvent A; Gradient, 10%-50% solvent B in 25 minutes.
Serum stability was measured by adding an aliquot of Pip-PMO (10 nmoles) to 100% mouse serum (100 μL) and incubating at 37° C. for 120 or 240 min. Each reaction was diluted with IM guanidinium-HCl solution (300 μL) and ice-cold acetonitrile (600 μL). Samples were mixed and kept at −20° C., and the precipitated serum proteins separated by centrifugation (13000 rpm, 5 min). After centrifugation, the supernatant was collected, lyophilized and the residue dissolved in water for analysis for peptide degradation by MALDI-TOF mass spectrometry and by reversed phase HPLC. […]

RXRRBRRXRILFQYRXRBRXRBC [Pip5e-PMO]
dystrophin protein restoration in all muscle types, including heart (dystrophin [1]): high levels | percent recovery score (% RS), dystrophin immunostaining (dystrophin [2]): 17.32% | Δ23 exon skipping by qRT-PCR (dystrophin exon 23): highest exon skipping | stability in 100% mouse serum ([3]; 120 min (2 h), HPLC and MALDI-TOF): unchanged Pip-PMO conjugate | levels of PMO conjugated to fragments of peptide ([3]; 100% mouse serum, 120 minutes): very similar to that for (RXRRBR)2XB-PMO
